How the values were obtained:
[1] = system: Hepatitis C virus subtype 1a; assay: Selectivity ratio for EC90 for HCV genotype-1a NS5A Y93H mutant to EC90 for HCV genotype-1a NS5A
[2] = system: T1, Nonstructural protein 5A (Hepatitis C virus), Q5L478 [Y93H]; assay: Inhibition of HCV genotype-1a NS5A Y93H mutant infected in human HuH7 cells by luciferase reporter gene assay; assay type: cell-based; settings: Hepatitis C virus subtype 1a; Huh-7
T1 sequence (whole entry): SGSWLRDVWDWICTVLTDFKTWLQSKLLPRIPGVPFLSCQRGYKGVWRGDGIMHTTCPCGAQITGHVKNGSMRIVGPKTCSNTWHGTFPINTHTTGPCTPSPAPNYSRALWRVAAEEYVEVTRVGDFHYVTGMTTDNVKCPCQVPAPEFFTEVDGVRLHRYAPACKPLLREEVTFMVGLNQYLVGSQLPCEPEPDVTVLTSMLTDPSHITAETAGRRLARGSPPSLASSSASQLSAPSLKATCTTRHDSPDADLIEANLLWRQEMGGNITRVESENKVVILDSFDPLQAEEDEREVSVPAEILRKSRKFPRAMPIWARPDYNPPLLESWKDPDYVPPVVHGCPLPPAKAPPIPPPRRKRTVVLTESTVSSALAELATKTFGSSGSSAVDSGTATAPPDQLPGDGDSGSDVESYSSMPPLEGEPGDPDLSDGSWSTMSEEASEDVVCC

Huh-7 [3] = assay: Inhibition of HCV genotype-2b NS5A harboring methionine at position 31 infected in human HuH7 cells by luciferase reporter gene assay; assay type: cell-based; settings: Hepatitis C virus subtype 2b
Huh-7 [4] = assay: Inhibition of HCV genotype-1a NS5A infected in human HuH7 cells by luciferase reporter gene assay; assay type: cell-based; settings: Hepatitis C virus subtype 1a
[5] = Selectivity ratio for EC90 for HCV genotype-2b NS5A harboring methionine at position 31 to EC90 for HCV genotype-1a NS5A
[6] = system: Nonstructural protein 5A (Hepatitis C virus), Q5L478 [UNDEFINED MUTATION]; assay: Inhibition of HCV genotype-1a NS5A L31V mutant infected in human HuH7 cells by luciferase reporter gene assay; assay type: cell-based; settings: Hepatitis C virus subtype 1a; Huh-7
Huh-7 [7] = assay: Inhibition of HCV genotype-4a NS5A infected in human HuH7 cells by luciferase reporter gene assay; assay type: cell-based; settings: Hepatitis C virus subtype 4a
Huh-7 [8] = assay: Inhibition of HCV genotype-3a NS5A infected in human HuH7 cells by luciferase reporter gene assay; assay type: cell-based; settings: Hepatitis C virus subtype 3a

Structure (SMILES) | Selectivity ratio [1] | EC90 [2] | EC90 (Huh-7 [3]) | EC90 (Huh-7 [4]) | Selectivity ratio [5] | EC90 [6] | EC90 (Huh-7 [7]) | EC90 (Huh-7 [8])
COC(=O)N[C@H](C(=O)N1CCC[C@H]1c1ncc(-c2cc(F)c3c(c2)O[C@@H](c2ccc4c(c2)OCCC4)n2c-3cc3cc(-c4cnc([C@@H]5CCCN5C(=O)[C@@H](NC(=O)OC)C(C)C)[nH]4)ccc32)[nH]1)C(C)C | 167 | 0.5 nM | 0.3 nM | 0.003 nM | 100 |  |  | 
CCc1ccc([C@@H]2Oc3cc(-c4cnc([C@@H]5CCCN5C(=O)[C@@H](NC(=O)OC)C(C)C)[nH]4)ccc3-c3cc4cc(-c5cnc([C@@H]6CCCN6C(=O)[C@@H](NC(=O)OC)C(C)C)[nH]5)ccc4n32)s1 | 680 | 3.4 nM | 0.25 nM | 0.005 nM | 50 |  |  | 
COC(=O)N[C@H](C(=O)N1CCC[C@H]1c1ncc(-c2cc(F)c3c(c2)OC(c2sc(C(C)C)nc2C)n2c-3cc3cc(-c4cnc([C@@H]5CCCN5C(=O)[C@@H](NC(=O)OC)C(C)C)[nH]4)ccc32)[nH]1)C(C)C (some centres not stated) |  | 12.5 nM | > 1.7 nM | 0.004 nM |  | 0.36 nM | 0.009 nM | 0.034 nM
COC(=O)N[C@H](C(=O)N1CCC[C@H]1c1ncc(-c2cc(F)c3c(c2)OC(c2ccc(CC(F)(F)F)s2)n2c-3cc3cc(-c4cnc([C@@H]5CCCN5C(=O)[C@@H](NC(=O)OC)C(C)C)[nH]4)ccc32)[nH]1)C(C)C (some centres not stated) |  | 0.1 nM | 0.65 nM | 0.001 nM |  | 0.022 nM | 0.004 nM | 0.007 nM
COC(=O)N[C@H](C(=O)N1CCC[C@H]1c1ncc(-c2cc(F)c3c(c2)OC(c2ccc(C(F)F)s2)n2c-3cc3cc(-c4cnc([C@@H]5CCCN5C(=O)[C@@H](NC(=O)OC)C(C)C)[nH]4)ccc32)[nH]1)C(C)C (some centres not stated) |  | 0.14 nM | 0.26 nM | 0.002 nM |  | 0.016 nM | 0.005 nM | 0.007 nM
COC(=O)N[C@H](C(=O)N1CCC[C@H]1c1ncc(-c2cc(F)c3c(c2)OC(c2cnc(CC(F)(F)F)s2)n2c-3cc3cc(-c4cnc([C@@H]5CCCN5C(=O)[C@@H](NC(=O)OC)C(C)C)[nH]4)ccc32)[nH]1)C(C)C (some centres not stated) |  | 0.18 nM | 0.22 nM | 0.005 nM |  | 0.05 nM | 0.013 nM | 0.015 nM
COC(=O)N[C@H](C(=O)N1CCC[C@H]1c1ncc(-c2cc(F)c3c(c2)OC(c2cnc(C(C)C)s2)n2c-3cc3cc(-c4cnc([C@@H]5CCCN5C(=O)[C@@H](NC(=O)OC)C(C)C)[nH]4)ccc32)[nH]1)C(C)C (some centres not stated) |  | 0.05 nM | 0.14 nM | 0.002 nM |  | 0.022 nM | 0.004 nM | 0.006 nM
COC(=O)N[C@H](C(=O)N1CCC[C@H]1c1ncc(-c2cc(F)c3c(c2)OC(c2cnc(OC)s2)n2c-3cc3cc(-c4cnc([C@@H]5CCCN5C(=O)[C@@H](NC(=O)OC)C(C)C)[nH]4)ccc32)[nH]1)C(C)C (some centres not stated) |  | 0.035 nM | 0.068 nM | 0.002 nM |  | 0.015 nM | 0.004 nM | 0.007 nM
CCCc1ncc(C2Oc3cc(-c4cnc([C@@H]5CCCN5C(=O)[C@@H](NC(=O)OC)C(C)C)[nH]4)cc(F)c3-c3cc4cc(-c5cnc([C@@H]6C[C@H]7C[C@H]7N6C(=O)[C@@H](NC(=O)OC)C(C)C)[nH]5)ccc4n32)s1 (some centres not stated) |  | 0.021 nM | 0.14 nM | 0.005 nM |  | 0.013 nM | 0.012 nM | 0.009 nM
CCc1ncc(C2Oc3cc(-c4cnc([C@@H]5CCCN5C(=O)[C@@H](NC(=O)OC)C(C)C)[nH]4)cc(F)c3-c3cc4cc(-c5cnc([C@@H]6C[C@H]7C[C@H]7N6C(=O)[C@@H](NC(=O)OC)C(C)C)[nH]5)ccc4n32)s1 (some centres not stated) |  | 0.04 nM | 0.21 nM | 0.005 nM |  | 0.022 nM | 0.008 nM | 0.012 nM
COC(=O)N[C@H](C(=O)N1CCC[C@H]1c1ncc(-c2cc(F)c3c(c2)OC(c2cnc(C(C)C)s2)n2c-3cc3cc(-c4cnc([C@@H]5C[C@H]6C[C@H]6N5C(=O)[C@@H](NC(=O)OC)C(C)C)[nH]4)ccc32)[nH]1)C(C)C (some centres not stated) |  | 0.028 nM | 0.23 nM | 0.003 nM |  | 0.008 nM | 0.006 nM | 0.006 nM
COC(=O)N[C@H](C(=O)N1CCC[C@H]1c1ncc(-c2cc(F)c3c(c2)OC(c2sccc2C2CC2)n2c-3cc3cc(-c4cnc([C@@H]5CCCN5C(=O)[C@@H](NC(=O)OC)C(C)C)[nH]4)ccc32)[nH]1)C(C)C (some centres not stated) |  | 70 nM | > 33 nM | 0.012 nM |  | 1.74 nM | 0.32 nM | 4.7 nM
COC(=O)N[C@H](C(=O)N1CCC[C@H]1c1ncc(-c2cc(F)c3c(c2)OC(c2ccc(C4CC4)s2)n2c-3cc3cc(-c4cnc([C@@H]5C[C@H]6C[C@H]6N5C(=O)[C@@H](NC(=O)OC)C(C)C)[nH]4)ccc32)[nH]1)C(C)C (some centres not stated) |  | 0.03 nM | 0.3 nM | 0.004 nM |  | 0.012 nM | 0.005 nM | 0.007 nM
COC(=O)N[C@H](C(=O)N1CCC[C@H]1c1ncc(-c2cc(F)c3c(c2)OC(c2csc(C4CC4)c2)n2c-3cc3cc(-c4cnc([C@@H]5CCCN5C(=O)[C@@H](NC(=O)OC)C(C)C)[nH]4)ccc32)[nH]1)C(C)C (some centres not stated) |  | 0.26 nM | 0.88 nM | 0.002 nM |  | 0.06 nM | 0.003 nM | 0.007 nM
COC(=O)N[C@H](C(=O)N1CCC[C@H]1c1ncc(-c2cc(F)c3c(c2)OC(c2cc4c(s2)CCC4)n2c-3cc3cc(-c4cnc([C@@H]5C[C@H]6C[C@H]6N5C(=O)[C@@H](NC(=O)OC)C(C)C)[nH]4)ccc32)[nH]1)C(C)C (some centres not stated) |  | 0.2 nM | 0.67 nM | 0.006 nM |  | 0.015 nM | 0.005 nM | 0.012 nM
COC(=O)N[C@H](C(=O)N1CCC[C@H]1c1ncc(-c2cc(F)c3c(c2)OC(c2ccc(C(F)(F)F)s2)n2c-3cc3cc(-c4cnc([C@@H]5CCCN5C(=O)[C@@H](NC(=O)OC)C(C)C)[nH]4)ccc32)[nH]1)C(C)C (some centres not stated) |  | 0.31 nM | 0.31 nM | 0.003 nM |  | 0.097 nM | 0.003 nM | 0.007 nM
COC(=O)N[C@H](C(=O)N1CCC[C@H]1c1ncc(-c2cc(F)c3c(c2)OC(c2ccc(C#N)s2)n2c-3cc3cc(-c4cnc([C@@H]5CCCN5C(=O)[C@@H](NC(=O)OC)C(C)C)[nH]4)ccc32)[nH]1)C(C)C (some centres not stated) |  | 2.38 nM | 3.4 nM | < 0.002 nM |  | 0.087 nM | 0.004 nM | 0.013 nM
COC(=O)N[C@H](C(=O)N1CCC[C@H]1c1ncc(-c2cc(F)c3c(c2)OC(c2cnc(C4(C)CC4)s2)n2c-3cc3cc(-c4cnc([C@@H]5CCCN5C(=O)[C@@H](NC(=O)OC)C(C)C)[nH]4)ccc32)[nH]1)C(C)C (some centres not stated) |  | 0.38 nM | 0.68 nM | 0.017 nM |  | 0.065 nM | 0.027 nM | 0.046 nM
COCc1ccc(C2Oc3cc(-c4cnc([C@@H]5CCCN5C(=O)[C@@H](NC(=O)OC)C(C)C)[nH]4)cc(F)c3-c3cc4cc(-c5cnc([C@@H]6CCCN6C(=O)[C@@H](NC(=O)OC)C(C)C)[nH]5)ccc4n32)s1 (some centres not stated) |  | 0.22 nM | 0.54 nM | 0.005 nM |  | 0.049 nM | 0.009 nM | 0.016 nM
